pIC50: −log10 of the molar value. Activity calls are given as the source filed them. The calls are words filed in the database; no cut-off is given here.
Experiments:
[1] = molecular target: T1, Peroxisome proliferator-activated receptor gamma (Homo sapiens, UniProt P37231); assay: Displacement of fluormone pan-PPAR green from recombinant GST-tagged human PPAR-gamma ligand binding domain (E235 to Y505 residues) extracted from Escherichia coli BL21 (DE3) cells by TR-FRET assay
T1 sequence (P37231 whole entry): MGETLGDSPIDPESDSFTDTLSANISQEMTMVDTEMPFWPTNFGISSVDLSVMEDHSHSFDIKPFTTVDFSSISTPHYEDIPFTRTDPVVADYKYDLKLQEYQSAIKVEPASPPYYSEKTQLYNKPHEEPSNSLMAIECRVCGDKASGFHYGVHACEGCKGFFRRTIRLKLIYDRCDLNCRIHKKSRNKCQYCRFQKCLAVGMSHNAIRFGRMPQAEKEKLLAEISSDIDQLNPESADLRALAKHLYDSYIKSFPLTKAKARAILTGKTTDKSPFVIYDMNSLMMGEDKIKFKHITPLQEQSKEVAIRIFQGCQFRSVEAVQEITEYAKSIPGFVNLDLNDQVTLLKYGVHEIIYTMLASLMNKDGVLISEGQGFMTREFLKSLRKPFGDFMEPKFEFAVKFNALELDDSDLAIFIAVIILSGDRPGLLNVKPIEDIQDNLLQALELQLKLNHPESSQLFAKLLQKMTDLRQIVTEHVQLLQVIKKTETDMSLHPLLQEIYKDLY

Mus musculus [2] = assay: Antidiabetic activity in male db/db mouse model assessed as downregulation of aP2 gene expression in liver at 2.5 to 10 mg/kg/day, ip administered for 4 weeks by RT-qPCR analysis; format: functional, organism-based; details: dose 2.5-10 mg/kg/day
Mus musculus [3] = assay: Antidiabetic activity in male db/db mouse model assessed as downregulation of PPARgamma gene expression in white adipose tissue at 2.5 to 10 mg/kg/day, ip administered for 4 weeks by RT-qPCR analysis; format: functional, organism-based; details: dose 2.5-10 mg/kg/day
[4] = Toxicity in male db/db mouse model assessed as effect on spleen weight at 2.5 to 10 mg/kg/day, ip administered for 4 weeks; format: organism-based; details: in vivo, 672 h, dose 2.5-10 mg/kg/day
[5] = molecular target: T2, Peroxisome proliferator-activated receptor gamma (Homo sapiens) (UniProt P37231); assay: Covalent binding affinity to recombinant PPAR-gamma ligand binding domain (unknown origin) incubated for 30 mins by high-performance liquid chromatography Fourier transform mass spectrometric analysis; details: filed as partial agonist
T2 sequence (whole entry): T1 sequence (P37231 whole entry)

Mus musculus [6] = assay: Effect on pRb protein expression in male db/db mouse liver at 2.5 to 10 mg/kg/day, ip administered for 4 weeks by Western blotting analysis; format: functional, organism-based; details: dose 2.5-10 mg/kg/day
3T3-L1 [7] = assay: Inhibition of adipocyte differentiation in mouse 3T3-L1 cells assessed as reduction in lipid accumulation at 1 uM measured after 48 hrs by Oil red O staining based inverted microscopic analysis; format: functional, cell-based
Mus musculus [8] = assay: Antidiabetic activity in male db/db mouse model assessed as upregulation of adiponectin gene expression in white adipose tissue at 2.5 to 10 mg/kg/day, ip administered for 4 weeks by RT-qPCR analysis; format: functional, organism-based; details: dose 2.5-10 mg/kg/day
Mus musculus [9] = assay: Antidiabetic activity in male db/db mouse model assessed as decrease in PDK4 protein abundance in white adipose tissue at 2.5 to 10 mg/kg/day, ip administered for 4 weeks by Western blotting analysis; format: functional, organism-based; details: dose 2.5-10 mg/kg/day
3T3-L1 [10] = assay: Inhibition of adipogenesis in mouse 3T3-L1 cells assessed as downregulation of CD36 gene expression at 1 uM measured after 48 hrs by RT-qPCR analysis; format: functional, cell-based
[11] = Toxicity in male db/db mouse model assessed as increase in white adipocytes size at 2.5 to 10 mg/kg/day, ip administered for 4 weeks by H and E staining based analysis; format: organism-based; details: in vivo, 672 h, dose 2.5-10 mg/kg/day
[12] = Toxicity in male db/db mouse model assessed as effect on liver morphology at 2.5 to 5 mg/kg, ip administered for 4 weeks; format: organism-based; details: in vivo, 672 h, dose 2.5-5 mg/kg
Mus musculus [13] = assay: Antidiabetic activity in male db/db mouse model assessed as increase in Glut4 protein abundance in white adipose tissue at 2.5 to 10 mg/kg/day, ip administered for 4 weeks by Western blotting analysis; format: functional, organism-based; details: dose 2.5-10 mg/kg/day
3T3-L1 [14] = assay: Insulin sensitizing activity in mouse 3T3-L1 cells assessed as upregulation of Glut4 gene expression at 1 uM measured after 48 hrs by RT-qPCR analysis; format: functional, cell-based
Mus musculus [15] = assay: Antidiabetic activity in male db/db mouse model assessed as upregulation of Glut4 gene expression in liver at 2.5 to 10 mg/kg/day, ip administered for 4 weeks by RT-qPCR analysis; format: functional, organism-based; details: dose 2.5-10 mg/kg/day
[16] = Toxicity in male db/db mouse model assessed as effect on liver weight at 2.5 to 5 mg/kg, ip administered for 4 weeks; format: organism-based; details: in vivo, 672 h, dose 2.5-5 mg/kg
Mus musculus [17] = assay: Antidiabetic activity in male db/db mouse model assessed as increase in ADIPOQ protein abundance in liver at 2.5 to 10 mg/kg/day, ip administered for 4 weeks by Western blotting analysis; format: functional, organism-based; details: dose 2.5-10 mg/kg/day
Mus musculus [18] = assay: Antidiabetic activity in male db/db mouse model assessed as improvement in glucose tolerance at 2.5 to 10 mg/kg/day, ip preadministered for 4 weeks followed by glucose administration after 4 to 6 hrs of fasting and measured after 120 mins by intraperitoneal glucose tolerance test; format: functional, organism-based; details: dose 2.5-10 mg/kg/day
Mus musculus [19] = assay: Antidiabetic activity in male db/db mouse model assessed as downregulation of SOCS3 gene expression in liver at 2.5 to 10 mg/kg/day, ip administered for 4 weeks by RT-qPCR analysis; format: functional, organism-based; details: dose 2.5-10 mg/kg/day
Mus musculus [20] = assay: Antidiabetic activity in male db/db mouse model assessed as downregulation of SOCS3 gene expression in white adipose tissue at 2.5 to 10 mg/kg/day, ip administered for 4 weeks by RT-qPCR analysis; format: functional, organism-based; details: dose 2.5-10 mg/kg/day
[21] = molecular target: T2, Peroxisome proliferator-activated receptor gamma (Homo sapiens); assay: Reversible covalent binding affinity to recombinant GST-tagged human PPAR-gamma ligand binding domain (E235 to Y505 residues) extracted from Escherichia coli BL21 (DE3) cells at 500 nM measured upto 240 mins by TR-FRET assay; details: filed as partial agonist
Mus musculus [22] = assay: In vivo inhibition of Erk/Cdk5-mediated PPAR-gamma phosphorylation at Ser273 residue in male db/db mouse model assessed as decrease in phosphorylated-MEK expression in white adipose tissue at 2.5 to 10 mg/kg/day, ip administered for 4 weeks by Western blotting analysis; format: functional, organism-based; details: dose 2.5-10 mg/kg/day
Mus musculus [23] = assay: Downregulation of PPAR-gamma protein expression in male db/db mouse liver at 2.5 to 10 mg/kg/day, ip administered for 4 weeks by Western blotting analysis; format: functional, organism-based; details: dose 2.5-10 mg/kg/day
Mus musculus [24] = assay: Antidiabetic activity in male db/db mouse model assessed as downregulation of LPL gene expression in white adipose tissue at 2.5 to 10 mg/kg/day, ip administered for 4 weeks by RT-qPCR analysis; format: functional, organism-based; details: dose 2.5-10 mg/kg/day
Mus musculus [25] = assay: Antidiabetic activity in male db/db mouse model assessed as downregulation of LPL gene expression in liver at 2.5 to 10 mg/kg/day, ip administered for 4 weeks by RT-qPCR analysis; format: functional, organism-based; details: dose 2.5-10 mg/kg/day
Mus musculus [26] = assay: Effect on cdk5 protein expression in male db/db mouse white adipose tissue at 2.5 to 10 mg/kg/day, ip administered for 4 weeks by Western blotting analysis; format: functional, organism-based; details: dose 2.5-10 mg/kg/day

Structure (SMILES): Cc1ccc(S(=O)(=O)Oc2ccc(S3(=O)=N[Se]c4cc(OS(=O)(=O)c5ccc(C)cc5)ccc43)cc2)cc1 (stereo unspecified)
- pIC50 [1]: 6.46
- Activity (Mus musculus [2]): Active
- Activity (Mus musculus [3]): Active
- Activity [4]: Non-toxic
- Activity [5]: Active; Mass Change Of 633.50 Da For Ppargamma-Lbd Observed
- Activity (Mus musculus [6]): inactive
- inhibition (3T3-L1 [7]): Active
- Activity (Mus musculus [8]): Active
- Activity (Mus musculus [9]): Active
- inhibition (3T3-L1 [10]): Active
- Activity [11]: Non-toxic
- Activity [12]: Non-toxic
- Activity (Mus musculus [13]): Active
- Activity (3T3-L1 [14]): Active
- Activity (Mus musculus [15]): Active
- Activity [16]: Non-toxic
- Activity (Mus musculus [17]): Active
- Activity (Mus musculus [18]): Active; Superior To That Of Reference Compound Gw9662
- Activity (Mus musculus [19]): Active
- Activity (Mus musculus [20]): Active
- Activity [21]: Active
- inhibition (Mus musculus [22]): Active
- Activity (Mus musculus [23]): inactive
- Activity (Mus musculus [24]): Active
- Activity (Mus musculus [25]): Active
- Activity (Mus musculus [26]): inactive
